Data from US20060235222A1, “Indole-derivative modulators of steroid hormone nuclear receptors” (ELI LILLY AND COMPANY, priority 2003, published 2006).

What follows are molecules tested against T1, human MR (Homo sapiens, UniProt P08235) (assay: Mineralocorticoid Receptor Binding Assay (Method 1), [3H]-aldosterone competition). Details: 0.5 nM [3H]-aldosterone, human MR expressed in Sf9 cells.
T1 construct: The full length human MR gene is cloned from a human kidney or human brain cDNA library; inferred from own knowledge of the pAcHLT vector (N); made in house; host or cells: Sf9 insect cells (baculovirus)
T1 sequence (P08235 1-984): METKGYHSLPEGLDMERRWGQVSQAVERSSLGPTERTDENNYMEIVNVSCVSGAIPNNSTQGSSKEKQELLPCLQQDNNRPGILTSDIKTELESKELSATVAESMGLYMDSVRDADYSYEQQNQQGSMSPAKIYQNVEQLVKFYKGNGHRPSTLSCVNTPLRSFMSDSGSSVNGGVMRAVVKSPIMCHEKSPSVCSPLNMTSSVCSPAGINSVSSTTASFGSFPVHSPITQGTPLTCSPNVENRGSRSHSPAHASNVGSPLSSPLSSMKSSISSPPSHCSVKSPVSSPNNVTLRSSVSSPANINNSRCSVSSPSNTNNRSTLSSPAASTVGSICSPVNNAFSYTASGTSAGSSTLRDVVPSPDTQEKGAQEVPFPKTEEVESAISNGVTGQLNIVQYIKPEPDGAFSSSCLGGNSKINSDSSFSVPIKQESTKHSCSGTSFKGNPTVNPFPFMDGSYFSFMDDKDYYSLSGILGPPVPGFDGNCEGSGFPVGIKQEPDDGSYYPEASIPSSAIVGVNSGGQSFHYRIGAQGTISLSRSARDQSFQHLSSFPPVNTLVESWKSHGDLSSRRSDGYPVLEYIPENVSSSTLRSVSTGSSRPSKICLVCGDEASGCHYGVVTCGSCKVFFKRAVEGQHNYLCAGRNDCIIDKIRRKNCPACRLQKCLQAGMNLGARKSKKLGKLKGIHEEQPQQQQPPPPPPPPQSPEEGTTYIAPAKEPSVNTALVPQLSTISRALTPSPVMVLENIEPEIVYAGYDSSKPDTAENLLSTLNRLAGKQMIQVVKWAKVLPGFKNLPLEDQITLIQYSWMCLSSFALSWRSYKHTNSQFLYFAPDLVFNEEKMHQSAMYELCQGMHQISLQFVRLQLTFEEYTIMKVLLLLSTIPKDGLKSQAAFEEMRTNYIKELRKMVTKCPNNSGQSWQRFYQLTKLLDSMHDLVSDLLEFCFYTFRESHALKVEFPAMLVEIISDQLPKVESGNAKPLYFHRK
Protocol: Mineralocorticoid Receptor Binding Assay (Method 1):
The full length human MR gene is cloned from a human kidney or human brain cDNA library. […] The PCR reaction is performed in a final volume of 50 μl containing about 1 μl of a 50× stock solution of polymerase; about 1 μl of a 50× stock solution of dNTP; about 5 μl of an appropriate PCR buffer; about 1 μl of each primer; about 5 μl of a H. kidney or H. brain cDNA library; and about 36 μl of water. The reaction is allowed to denature for about 30 seconds at 95 degrees Celsius, anneal for about 30 seconds at 55 degrees Celsius, and extend for about 5 minutes at 72 degrees Celsius, the sequence being repeated for a total of about 35 cycles. […] To extract the cDNA product from the agarose gel, the QIAEX II Gel Extraction protocol (QIAGEN, Inc.) is employed according to the manufacturer's instructions. Following extraction, the MR cDNA is cloned into an appropriate cloning vector (Zero Blunt TOPO PCR Cloning Kit (Invitrogen, Inc.) and a pAcHLT-baculovirus transfer vector (B.D./Pharminogen), then expressed in SF9 insect cells, essentially according to manufacturer's instructions. Sf9 cells are grown at a scale where gram quantity cell pellets are obtained for subsequent use in the MR binding assay. Harvested cell pellets are lysed by repeated freeze-thaw cycles (about 4) in a suitable lysis buffer then centrifuged at about 1×10^3 G (with the supernatant being saved for future assays).
MR binding assays are performed in a final total volume of about 250 μl containing about 20-25 μg of protein and 0.5 nM of [^3H]-aldosterone plus varying concentrations of test compound or vehicle. The assay binding buffer consists of 30 mM sodium molybdate, 30 mM of TRIS-HCl, 5 mM sodium phosphate, 5 mM sodium pyrophosphate, and about 10% glycerol, pH=7.5.
Incubations are carried out at 4 degrees Celsius with shaking for about 16 hours. 200 μl aliquots of each incubation are filtered onto Millipore HA 0.45 micron 96-well filter plates, pre-moistened with cold 30 mM TRIS-HCl. The filter plates are suctioned dry with vacuum and immediately washed 3× with cold 30 mM TRIS-HCl. The plates are then punched out and the amount of receptor-ligand complex is determined by liquid scintillation counting using 4 ml of Ready Protein Plus™ liquid scintillation cocktail.

Ki, < 500 nM:
CCC(CC)(c1ccc([S@+](C)[O-])cc1)c1c[nH]c2c(NS(C)(=O)=O)cccc12 (stereo in doubt) [Example 49, N-{3-[1-Ethyl-1-(4-methanesulfinyl-phenyl)-propyl]-1H-indol-7-yl}-methanesulfonamide]
CCS(=O)(=O)Nc1cccc2c([C@](C)(c3ccc(F)cc3F)C3CC3)c[nH]c12 (stereo in doubt) [Example 126, Ethanesulfonic acid {3-[1-cyclopropyl-1-(2,4-difluoro-phenyl)-ethyl]-1H-indol-7-yl}-amide]
CCCC(C)(c1ccc(C)cc1)c1c[nH]c2c(NS(C)(=O)=O)cccc12 (centres unmarked) [Example 1, N-[3-(1-Methyl-1-p-tolyl-butyl)-1H-indol-7-yl]methane sulfonamide]
CCC(CC)(c1cc2ccccc2o1)c1c[nH]c2c(NS(C)(=O)=O)cccc12 [Example 2, N-[3-(1-Benzofuran-2-yl-1-ethyl-propyl)-1H-indol-7-yl]-methanesulfonamide]
CC(C)(c1ccccc1-c1ccccc1)c1c[nH]c2c(NS(C)(=O)=O)cccc12 [Example 34, N-[3-(1-Biphenyl-2-yl-1-methyl-ethyl)-1H-indol-7-yl]-methanesulfonamide]
CCC(COC)(c1ccccc1)c1c[nH]c2c(NS(C)(=O)=O)cccc12 (centres unmarked) [Example 74, N-[3-(1-Methoxymethyl-1-phenyl-propyl)-1H-indol-7-yl]-methanesulfonamide]
COc1ccc(C(C)(c2c[nH]c3c(NS(C)(=O)=O)cccc23)C2CC2)cc1F (centres unmarked) [Example 123]
COc1cc(C(C)(c2c[nH]c3c(NS(C)(=O)=O)cccc23)C2CC2)ccc1Cl (centres unmarked) [Example 124, N-{3-[1-(4-Chloro-3-methoxy-phenyl)-1-cyclopropyl-ethyl]-1H-indol-7-yl}-methanesulfonamide]
COc1cc(C(C)(c2c[nH]c3c(NS(C)(=O)=O)cccc23)C2CC2)ccc1F (centres unmarked) [Example 125, N-{3-[1-Cyclopropyl-1-(4-fluoro-3-methoxy-phenyl)-ethyl]-1H-indol-7-yl}-methanesulfonamide]
CC(c1ccc(F)cc1)(c1c[nH]c2c(NS(C)(=O)=O)cccc12)C1CCC1 (centres unmarked) [Example 127, N-{3-[1-Cyclobutyl-1-(4-fluoro-phenyl)-ethyl]-1H-indol-7-yl}-methanesulfonamide]
CCC(CC)(c1ccc2c(c1)OCCO2)c1c[nH]c2c(NS(C)(=O)=O)cccc12 [Example 128, N-{3-[1-(2,3-Dihydro-benzo[1,4]dioxin-6-yl)-1-ethyl-propyl]-1H-indol-7-yl}-methanesulfonamide]
CC(c1ccc2c(c1)OCCO2)(c1c[nH]c2c(NS(C)(=O)=O)cccc12)C1CC1 (centres unmarked) [Example 129, N-{3-[1-Cyclopropyl-1-(2,3-dihydro-benzo[1,4]dioxin-6-yl)-ethyl]-1H-indol-7-yl}-methanesulfonamide]
CC(c1ccc2c(c1)OCO2)(c1c[nH]c2c(NS(C)(=O)=O)cccc12)C1CC1 (centres unmarked) [Example 131, N-[3-(1-Benzo[1,3]dioxol-5-yl-1-cyclopropyl-ethyl)-1H-indol-7-yl]-methanesulfonamide]
CCC(CC)(c1ccc2c(c1)OCCO2)c1c[nH]c2c(NS(=O)(=O)CC)cccc12 [Example 133, N-{3-[1-(2,3-Dihydro-benzo[1,4]dioxin-6-yl)-1-ethyl-propyl]-1H-indol-7-yl}-ethanesulfonamide]
CCC(CC)(c1ccc2ccn(C(C)=O)c2c1)c1c[nH]c2c(NS(C)(=O)=O)cccc12 [Example 183]
CCC(CC)(c1cccc2oc(C)cc12)c1c[nH]c2c(NS(C)(=O)=O)cccc12 [Example 184]
CCC(CC)(c1ccc2cc(C)oc2c1)c1c[nH]c2c(NS(C)(=O)=O)cccc12 [Example 188]
C[C@](c1ccc2c(c1)OCCO2)(c1c[nH]c2c(NS(C)(=O)=O)cccc12)C1CC1 [Example 194]
CCC(CC)(c1ccc2sc(NC(C)=O)nc2c1)c1c[nH]c2c(NS(C)(=O)=O)cccc12 [Example 196]
CCC(CC)(c1ccc2c(c1)nc(C)n2C)c1c[nH]c2c(NS(C)(=O)=O)cccc12 [Example 198]

What follows are molecules tested against T2, glucocorticoid receptor (Homo sapiens, UniProt P04150) (assay: Glucocorticoid Receptor Binding Assay (Method 1), [3H]-dexamethasone competition, A549 cell extract). Details: 1.86 nM [3H]-dexamethasone, read-out: GR Ki (nM) Method 1.
T2 construct: containing 50-200 ug of A549 cell extract and 1.86 nM; host or cells: A549 human lung epithelial cells
T2 sequence (P04150 1-777): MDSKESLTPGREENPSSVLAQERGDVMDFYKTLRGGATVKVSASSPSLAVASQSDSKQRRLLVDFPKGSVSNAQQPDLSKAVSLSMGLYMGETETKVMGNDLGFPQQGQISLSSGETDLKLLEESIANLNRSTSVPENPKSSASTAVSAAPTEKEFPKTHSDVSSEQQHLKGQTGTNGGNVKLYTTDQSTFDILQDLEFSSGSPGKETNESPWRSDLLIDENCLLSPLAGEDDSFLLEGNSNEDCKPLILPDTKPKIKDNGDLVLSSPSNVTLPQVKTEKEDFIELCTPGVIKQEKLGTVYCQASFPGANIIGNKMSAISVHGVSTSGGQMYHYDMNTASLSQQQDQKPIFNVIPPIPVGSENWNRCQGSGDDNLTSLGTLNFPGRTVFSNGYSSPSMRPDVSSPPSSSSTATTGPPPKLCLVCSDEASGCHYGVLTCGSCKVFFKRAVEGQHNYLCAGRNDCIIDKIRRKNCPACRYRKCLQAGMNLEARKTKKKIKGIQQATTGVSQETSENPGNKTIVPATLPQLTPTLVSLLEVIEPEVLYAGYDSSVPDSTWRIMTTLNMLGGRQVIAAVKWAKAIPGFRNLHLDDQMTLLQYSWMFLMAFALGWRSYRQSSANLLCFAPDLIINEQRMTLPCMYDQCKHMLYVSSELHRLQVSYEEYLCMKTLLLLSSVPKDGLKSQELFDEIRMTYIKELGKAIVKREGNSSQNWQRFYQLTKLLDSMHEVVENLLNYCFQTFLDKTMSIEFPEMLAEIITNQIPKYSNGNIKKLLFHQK
Protocol: Glucocorticoid Receptor Binding Assay (Method 1):
A549 human lung epithelial cells (ATCC) are grown at a scale where gram quantity cell pellets are obtained. Harvested cell pellets are washed twice in cold phosphate buffered saline, centrifuged, and resuspended in cold assay binding buffer. The assay binding buffer consists of 10% glycerol, 50 mM Tris-HCl (pH7.2), 75 mM sodium chloride, 1.5 mM magnesium chloride, 1.5 mM EDTA, and 10 mM sodium molybdate. Cell suspensions were lysed via sonication, centrifuged, and the “extract” supernatant is snap frozen and stored at −80 C until needed.
Incubations are carried out at 4 degrees Celsius for 16 hours. After incubation, 70 ul of 3× dextran-coated charcoal solution is added to each reaction, mixed, and incubated for 8 minutes at RT. 3×-dextran-coated charcoal solution consists of 250 ml assay binding buffer, 3.75 g Norit A charcoal (Sigma), and 1.25 g dextran T-70 (Amersham). Charcoal/unbound radioligand complexes are removed by centrifugation of the plate and 140 ul of supernatant from each well is transferred to another 96 well Optiplate (Packard Instruments). 200 ul of Microscint-20 scinillant (Packard Instruments) is added to each well and amount of receptor bound radioligand is determined using Packard Instruments TopCount instrument.

Ki, < 500 nM:
CCC(CC)(c1ccc([S@+](C)[O-])cc1)c1c[nH]c2c(NS(C)(=O)=O)cccc12 (stereo in doubt) [Example 49, N-{3-[1-Ethyl-1-(4-methanesulfinyl-phenyl)-propyl]-1H-indol-7-yl}-methanesulfonamide]
CCCC(C)(c1ccc(C)cc1)c1c[nH]c2c(NS(C)(=O)=O)cccc12 (centres unmarked) [Example 1, N-[3-(1-Methyl-1-p-tolyl-butyl)-1H-indol-7-yl]methane sulfonamide]
CCC(CC)(c1cc2ccccc2o1)c1c[nH]c2c(NS(C)(=O)=O)cccc12 [Example 2, N-[3-(1-Benzofuran-2-yl-1-ethyl-propyl)-1H-indol-7-yl]-methanesulfonamide]
